Test results from ChEMBL document CHEMBL3826966, “A chromatography-free isolation of rohitukine from leaves of Dysoxylum binectariferum: Evaluation for in vitro cytotoxicity, Cdk inhibition and physicochemical properties” (Bioorg Med Chem Lett, 2016).

Columns and labels:
[1] = biological target: Tyrosine-protein kinase BTK (Homo sapiens) (UniProt Q06187); assay: Inhibition of human BTK (2 to 659 residues) assessed as remaining enzyme activity at 50 uM after 30 mins by 33P-ATP filter-binding assay
[2] = biological target: Discoidin domain-containing receptor 2 (Homo sapiens) (UniProt Q16832); assay: Inhibition of human DDR2 (467 to 854 residues) assessed as remaining enzyme activity at 50 uM after 30 mins by 33P-ATP filter-binding assay
[3] = biological target: Serine/threonine-protein kinase TAO1 (Homo sapiens) (UniProt Q7L7X3); assay: Inhibition of human TAO1 (1 to 356 residues) assessed as remaining enzyme activity at 50 uM after 30 mins by 33P-ATP filter-binding assay
[4] = biological target: Insulin receptor-related protein (Homo sapiens) (UniProt P14616); assay: Inhibition of human IRR (944 to 1236 residues) assessed as remaining enzyme activity at 50 uM after 30 mins by 33P-ATP filter-binding assay
[5] = Cytotoxicity against human MOLT4 cells assessed as cell growth inhibition after 48 hrs by MTT assay; type: functional; details: MOLT-4, 48 h
[6] = Cell cycle arrest in human HL60 cells assessed as accumulation at S phase at 5 uM (reference value: 36 %); type: functional, cell-based; details: HL-60
[7] = biological target: Tyrosine-protein kinase ABL1 (Homo sapiens) (UniProt P00519); assay: Inhibition of human ABL (118 to 535 residues) assessed as remaining enzyme activity at 50 uM after 30 mins by 33P-ATP filter-binding assay
[8] = Cytotoxicity against human BxPC3 cells assessed as cell growth inhibition after 48 hrs by MTT assay; type: functional; details: BXPC-3, 48 h
[9] = biological target: Serine/threonine-protein kinase Sgk1 (Homo sapiens) (UniProt O00141); assay: Inhibition of human SGK1 assessed as remaining enzyme activity at 50 uM after 30 mins by 33P-ATP filter-binding assay
[10] = biological target: Dual specificity mitogen-activated protein kinase kinase 6 (Homo sapiens) (UniProt P52564); assay: Inhibition of human MKK6 (2 to 334 residues) assessed as remaining enzyme activity at 50 uM after 30 mins by 33P-ATP filter-binding assay
[11] = biological target: Ephrin type-A receptor 4 (Homo sapiens) (UniProt P54764); assay: Inhibition of human EPHA4 (580 to 986 residues) assessed as remaining enzyme activity at 50 uM after 30 mins by 33P-ATP filter-binding assay
[12] = biological target: Aurora kinase A (Homo sapiens) (UniProt O14965); assay: Inhibition of human Aurora A (2 to 403 residues) assessed as remaining enzyme activity at 50 uM after 30 mins by 33P-ATP filter-binding assay
[13] = biological target: Dual specificity protein kinase TTK (Homo sapiens) (UniProt P33981); assay: Inhibition of human TTK (1 to 857 residues) assessed as remaining enzyme activity at 50 uM after 30 mins by 33P-ATP filter-binding assay
CDK9/cyclin T1 = CDK9/cyclin T1 (Homo sapiens, UniProt P50750); assay: Inhibition of human Cdk9/T1 using YSPTSPSYSPTSPSYSPTSPKKK peptide as substrate after 30 mins by 33P-ATP filter-binding assay; type: protein-complex assay
[14] = biological target: Serine/threonine-protein kinase SIK2 (Homo sapiens) (UniProt Q9H0K1); assay: Inhibition of human SIK2 (2 to 962 residues) assessed as remaining enzyme activity at 50 uM after 30 mins by 33P-ATP filter-binding assay
[15] = biological target: MAP kinase-interacting serine/threonine-protein kinase 2 (Homo sapiens) (UniProt Q9HBH9); assay: Inhibition of human MNK2 assessed as remaining enzyme activity at 50 uM after 30 mins by 33P-ATP filter-binding assay
[16] = biological target: Dual specificity tyrosine-phosphorylation-regulated kinase 3 (Homo sapiens) (UniProt O43781); assay: Inhibition of human DYRK3 (1 to 588 residues) assessed as remaining enzyme activity at 50 uM after 30 mins by 33P-ATP filter-binding assay
[17] = biological target: Eukaryotic elongation factor 2 kinase (Homo sapiens) (UniProt O00418); assay: Inhibition of human EF2K (2 to 725 residues) assessed as remaining enzyme activity at 50 uM after 30 mins by 33P-ATP filter-binding assay
[18] = biological target: Dual specificity tyrosine-phosphorylation-regulated kinase 1A (Homo sapiens) (UniProt Q13627); assay: Inhibition of human DYRK1A (1 to 502 residues) assessed as remaining enzyme activity at 50 uM after 30 mins by 33P-ATP filter-binding assay
[19] = biological target: RAC-alpha serine/threonine-protein kinase (Homo sapiens) (UniProt P31749); assay: Inhibition of human PKBalpha assessed as remaining enzyme activity at 50 uM after 30 mins by 33P-ATP filter-binding assay
[20] = Stability in pH 6.8 buffer at 120 ug/ml after 8 hrs by RP-HPLC analysis; type: physicochemical; details: pH 6.8, 8 h
MAP3K9 = assay: Inhibition of human MLK1 (132 to 413 residues) assessed as remaining enzyme activity at 50 uM after 30 mins by 33P-ATP filter-binding assay
[21] = biological target: Mitogen-activated protein kinase 12 (Homo sapiens) (UniProt P53778); assay: Inhibition of human p38gamma MAPK (1 to 367 residues) assessed as remaining enzyme activity at 50 uM after 30 mins by 33P-ATP filter-binding assay
[22] = Cell cycle arrest in human HL60 cells assessed as accumulation at G2 phase at 1 uM (reference value: 5 %); type: functional, cell-based; details: HL-60
[23] = biological target: AMP-activated protein kinase, AMPK (Homo sapiens) (UniProt P54646+O43741+P54619+Q9UGJ0+Q9Y478+Q13131+Q9UGI9); assay: Inhibition of human AMPK assessed as remaining enzyme activity at 50 uM after 30 mins by 33P-ATP filter-binding assay; type: protein-complex assay
[24] = biological target: Calcium/calmodulin-dependent protein kinase type 1 (Homo sapiens) (UniProt Q14012); assay: Inhibition of human CAMK1 (1 to 541 residues) assessed as remaining enzyme activity at 50 uM after 30 mins by 33P-ATP filter-binding assay
[25] = biological target: Serine/threonine-protein kinase STK11 (Homo sapiens) (UniProt Q15831); assay: Inhibition of human LKB1 (1 to 433 residues) assessed as remaining enzyme activity at 50 uM after 30 mins by 33P-ATP filter-binding assay
[26] = biological target: CDK9/cyclin T1 (Homo sapiens) (UniProt O60563+P50750); assay: Inhibition of human Cdk9/T1 using YSPTSPSYSPTSPSYSPTSPKKK peptide as substrate assessed as remaining enzyme activity at 50 uM after 30 mins by 33P-ATP filter-binding assay; type: protein-complex assay
[27] = Stability in pH 1.2 buffer at 120 ug/ml after 8 hrs by RP-HPLC analysis; type: physicochemical; details: pH 1.2, 8 h
[28] = biological target: Serine/threonine-protein kinase 3 (Homo sapiens) (UniProt Q13188); assay: Inhibition of human MST2 (2 to 491 residues) assessed as remaining enzyme activity at 50 uM after 30 mins by 33P-ATP filter-binding assay
Sequence of Serine/threonine-protein kinase 3 (Homo sapiens) (Q13188 whole entry, the tested form may be a part): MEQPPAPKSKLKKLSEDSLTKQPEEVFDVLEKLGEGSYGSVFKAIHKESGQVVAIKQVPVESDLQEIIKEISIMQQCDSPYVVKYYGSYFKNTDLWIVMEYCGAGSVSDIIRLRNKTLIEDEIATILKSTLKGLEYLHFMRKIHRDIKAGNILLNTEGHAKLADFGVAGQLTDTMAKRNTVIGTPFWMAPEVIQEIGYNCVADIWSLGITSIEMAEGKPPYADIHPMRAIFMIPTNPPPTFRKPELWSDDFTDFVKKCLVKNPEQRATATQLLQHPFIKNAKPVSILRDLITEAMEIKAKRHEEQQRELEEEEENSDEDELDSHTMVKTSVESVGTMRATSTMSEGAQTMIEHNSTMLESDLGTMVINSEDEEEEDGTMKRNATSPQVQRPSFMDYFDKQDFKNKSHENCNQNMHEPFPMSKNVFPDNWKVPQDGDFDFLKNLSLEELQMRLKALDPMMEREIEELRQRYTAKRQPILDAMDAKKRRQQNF

Sequence of Tyrosine-protein kinase BTK (Homo sapiens) (Q06187 whole entry, the tested form may be a part): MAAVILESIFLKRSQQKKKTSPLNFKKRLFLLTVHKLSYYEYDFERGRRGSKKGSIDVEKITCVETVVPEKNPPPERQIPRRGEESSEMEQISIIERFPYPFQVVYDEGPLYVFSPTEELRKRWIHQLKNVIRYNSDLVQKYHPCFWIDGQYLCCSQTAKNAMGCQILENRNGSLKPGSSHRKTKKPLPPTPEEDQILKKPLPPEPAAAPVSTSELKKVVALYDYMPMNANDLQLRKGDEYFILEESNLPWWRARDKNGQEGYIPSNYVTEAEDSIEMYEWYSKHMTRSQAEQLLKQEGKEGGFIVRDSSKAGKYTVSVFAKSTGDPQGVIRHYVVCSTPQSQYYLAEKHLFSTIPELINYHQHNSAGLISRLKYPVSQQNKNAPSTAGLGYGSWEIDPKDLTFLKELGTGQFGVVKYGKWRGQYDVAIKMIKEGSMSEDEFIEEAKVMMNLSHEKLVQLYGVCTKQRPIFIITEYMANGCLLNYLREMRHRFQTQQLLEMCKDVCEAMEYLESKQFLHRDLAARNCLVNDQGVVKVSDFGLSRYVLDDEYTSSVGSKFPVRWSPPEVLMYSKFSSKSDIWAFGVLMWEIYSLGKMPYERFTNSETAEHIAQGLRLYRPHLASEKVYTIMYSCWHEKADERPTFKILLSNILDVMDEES
Sequence of CDK9/cyclin T1 (O60563 whole entry, the tested form may be a part): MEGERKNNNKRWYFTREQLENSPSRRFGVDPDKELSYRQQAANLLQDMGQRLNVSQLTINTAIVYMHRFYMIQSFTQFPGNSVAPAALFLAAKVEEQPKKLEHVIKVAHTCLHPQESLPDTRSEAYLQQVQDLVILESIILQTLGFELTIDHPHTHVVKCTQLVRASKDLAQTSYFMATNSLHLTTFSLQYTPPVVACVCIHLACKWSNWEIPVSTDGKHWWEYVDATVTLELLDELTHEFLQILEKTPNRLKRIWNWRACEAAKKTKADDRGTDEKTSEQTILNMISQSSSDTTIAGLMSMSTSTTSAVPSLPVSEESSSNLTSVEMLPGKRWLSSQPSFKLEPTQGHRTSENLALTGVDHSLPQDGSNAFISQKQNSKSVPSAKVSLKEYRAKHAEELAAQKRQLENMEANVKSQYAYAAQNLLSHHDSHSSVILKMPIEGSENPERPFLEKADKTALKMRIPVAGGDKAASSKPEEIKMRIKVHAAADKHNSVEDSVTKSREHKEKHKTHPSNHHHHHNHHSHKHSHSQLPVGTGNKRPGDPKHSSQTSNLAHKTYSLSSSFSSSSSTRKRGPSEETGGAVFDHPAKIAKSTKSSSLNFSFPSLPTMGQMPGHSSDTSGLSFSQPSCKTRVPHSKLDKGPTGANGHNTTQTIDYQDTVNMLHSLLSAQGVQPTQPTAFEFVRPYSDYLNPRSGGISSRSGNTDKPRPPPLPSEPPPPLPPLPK
Sequence of CDK9/cyclin T1 (P50750 whole entry, the tested form may be a part): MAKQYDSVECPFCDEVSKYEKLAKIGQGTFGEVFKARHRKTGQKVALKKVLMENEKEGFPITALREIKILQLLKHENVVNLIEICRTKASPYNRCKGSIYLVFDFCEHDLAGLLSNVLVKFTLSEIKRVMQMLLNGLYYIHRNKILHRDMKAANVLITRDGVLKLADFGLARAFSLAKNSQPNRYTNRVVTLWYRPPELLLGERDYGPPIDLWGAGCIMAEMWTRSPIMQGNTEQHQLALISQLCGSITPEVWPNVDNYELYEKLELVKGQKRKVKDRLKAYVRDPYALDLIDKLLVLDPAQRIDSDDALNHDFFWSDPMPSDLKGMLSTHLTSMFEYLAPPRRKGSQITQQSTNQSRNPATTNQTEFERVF
Sequence of Mitogen-activated protein kinase 12 (Homo sapiens) (P53778 whole entry, the tested form may be a part): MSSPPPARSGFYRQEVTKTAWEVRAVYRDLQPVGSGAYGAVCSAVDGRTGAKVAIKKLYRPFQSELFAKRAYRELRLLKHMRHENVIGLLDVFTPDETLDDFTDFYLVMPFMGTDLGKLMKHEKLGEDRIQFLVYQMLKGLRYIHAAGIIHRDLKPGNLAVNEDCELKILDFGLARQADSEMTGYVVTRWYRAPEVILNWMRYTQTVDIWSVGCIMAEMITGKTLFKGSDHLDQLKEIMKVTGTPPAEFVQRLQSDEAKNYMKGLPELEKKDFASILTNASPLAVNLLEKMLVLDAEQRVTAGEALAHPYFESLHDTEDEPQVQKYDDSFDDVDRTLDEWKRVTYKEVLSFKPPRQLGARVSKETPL
Sequence of Ephrin type-A receptor 4 (Homo sapiens) (P54764 whole entry, the tested form may be a part): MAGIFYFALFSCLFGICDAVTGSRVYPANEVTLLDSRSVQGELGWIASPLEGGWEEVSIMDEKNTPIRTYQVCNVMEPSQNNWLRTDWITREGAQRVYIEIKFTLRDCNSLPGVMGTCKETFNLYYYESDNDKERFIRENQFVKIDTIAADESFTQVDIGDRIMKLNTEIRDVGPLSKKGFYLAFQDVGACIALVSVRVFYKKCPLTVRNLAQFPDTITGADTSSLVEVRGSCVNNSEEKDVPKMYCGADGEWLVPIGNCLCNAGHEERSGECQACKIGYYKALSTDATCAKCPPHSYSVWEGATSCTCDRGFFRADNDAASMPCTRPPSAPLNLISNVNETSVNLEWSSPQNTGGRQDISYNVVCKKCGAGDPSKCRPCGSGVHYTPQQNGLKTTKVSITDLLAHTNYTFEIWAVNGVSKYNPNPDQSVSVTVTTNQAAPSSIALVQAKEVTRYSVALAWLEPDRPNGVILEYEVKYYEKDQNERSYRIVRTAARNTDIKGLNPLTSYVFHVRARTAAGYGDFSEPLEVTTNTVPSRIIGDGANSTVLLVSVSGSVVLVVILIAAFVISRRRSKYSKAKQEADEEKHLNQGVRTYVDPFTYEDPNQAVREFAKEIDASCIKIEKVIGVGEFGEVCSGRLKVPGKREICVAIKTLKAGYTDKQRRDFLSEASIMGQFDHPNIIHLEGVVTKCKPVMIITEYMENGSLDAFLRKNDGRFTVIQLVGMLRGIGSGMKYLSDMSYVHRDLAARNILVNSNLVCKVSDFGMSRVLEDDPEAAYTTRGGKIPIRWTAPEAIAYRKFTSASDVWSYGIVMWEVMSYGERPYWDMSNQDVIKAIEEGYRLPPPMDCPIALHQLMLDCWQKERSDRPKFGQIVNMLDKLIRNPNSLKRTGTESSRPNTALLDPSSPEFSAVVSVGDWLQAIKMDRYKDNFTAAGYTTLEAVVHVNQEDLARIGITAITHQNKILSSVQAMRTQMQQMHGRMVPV
Sequence of Dual specificity mitogen-activated protein kinase kinase 6 (Homo sapiens) (P52564 whole entry, the tested form may be a part): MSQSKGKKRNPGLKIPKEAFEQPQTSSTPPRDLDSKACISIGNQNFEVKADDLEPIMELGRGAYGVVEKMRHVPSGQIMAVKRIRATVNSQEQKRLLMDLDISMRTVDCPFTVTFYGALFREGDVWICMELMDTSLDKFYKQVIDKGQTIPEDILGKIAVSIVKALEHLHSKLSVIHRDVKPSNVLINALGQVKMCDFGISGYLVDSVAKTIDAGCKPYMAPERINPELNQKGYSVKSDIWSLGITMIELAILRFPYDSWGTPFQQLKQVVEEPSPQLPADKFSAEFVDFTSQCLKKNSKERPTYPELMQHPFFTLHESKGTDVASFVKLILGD
Sequence of Serine/threonine-protein kinase Sgk1 (Homo sapiens) (O00141 whole entry, the tested form may be a part): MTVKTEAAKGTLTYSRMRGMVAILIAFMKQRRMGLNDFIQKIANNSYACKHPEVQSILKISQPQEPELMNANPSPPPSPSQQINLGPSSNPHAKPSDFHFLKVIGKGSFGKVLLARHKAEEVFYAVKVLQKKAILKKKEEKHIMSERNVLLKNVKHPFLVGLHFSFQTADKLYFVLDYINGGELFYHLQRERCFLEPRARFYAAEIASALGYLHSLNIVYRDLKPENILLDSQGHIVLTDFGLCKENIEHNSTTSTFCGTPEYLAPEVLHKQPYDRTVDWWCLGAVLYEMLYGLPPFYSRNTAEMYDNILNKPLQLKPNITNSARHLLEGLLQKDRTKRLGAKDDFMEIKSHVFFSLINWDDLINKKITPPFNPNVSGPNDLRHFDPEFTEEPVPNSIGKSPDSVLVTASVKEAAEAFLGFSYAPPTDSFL
Sequence of Calcium/calmodulin-dependent protein kinase type 1 (Homo sapiens) (Q14012 whole entry, looked up, the tested form may be a part): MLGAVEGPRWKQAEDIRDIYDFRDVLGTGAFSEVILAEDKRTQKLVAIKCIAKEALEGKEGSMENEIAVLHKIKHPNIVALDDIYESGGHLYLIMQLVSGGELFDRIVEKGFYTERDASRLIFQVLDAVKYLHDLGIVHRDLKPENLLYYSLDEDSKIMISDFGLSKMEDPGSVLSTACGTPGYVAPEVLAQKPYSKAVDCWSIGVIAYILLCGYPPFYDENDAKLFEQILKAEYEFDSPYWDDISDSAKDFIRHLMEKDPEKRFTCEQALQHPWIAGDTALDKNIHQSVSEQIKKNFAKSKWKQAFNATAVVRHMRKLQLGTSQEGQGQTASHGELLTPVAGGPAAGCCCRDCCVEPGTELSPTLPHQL

Cc1cc(=O)c2c(O)cc(O)c([C@H]3CCN(C)C[C@H]3O)c2o1 [ROHITUKINE]
Activity [1]: 58% | Activity [2]: 79% | Activity [3]: 39% | Activity [4]: 53% | GI50 [5]: 12 µM | Activity [6]: 43% | Activity [7]: 87% | GI50 [8]: 20 µM | Activity [9]: 92% | Activity [10]: 89% | Activity [11]: 53% | Activity [12]: 91% | Activity [13]: 56% | IC50 (CDK9/cyclin T1): 0.3 µM | Activity [14]: 19% | Activity [15]: 49% | Activity [16]: 77% | Activity [17]: 84% | Activity [18]: 27% | Activity [19]: 76% | Stability [20]: Stable | Activity (MAP3K9): 47% | Activity [21]: 27% | Activity [22]: 13% | Activity [23]: 16% | Activity [24]: 76% | Activity [25]: 59% | Activity [26]: 7% | Stability [27]: Stable | Activity [28]: 46%
